Results taken from patent publication US9765070B2, “Substituted oxopyridine derivatives” (Bayer Pharma Aktiengesellschaft, priority 2013, dated 2017).

Molecular target: human plasma kallikrein (Homo sapiens (Human), UniProt P03952)
Assay: Determination of the plasma kallikrein activity (fluorogenic substrate H-Pro-Phe-Arg-AMC)
Assay type: biochemical
Conditions: plasma kallikrein from Kordia 0.6 nM, 15 min preincubation, 30 min at 22° C., fluorescence
Protocol: a.5) Determination of the Plasma Kallikrein Activity
To determine the plasma kallikrein inhibition of the substances according to the invention, a biochemical test system is used which utilizes the reaction of a peptidic plasma kallikrein substrate to determine the enzymatic activity of human plasma kallikrein. Here, plasma kallikrein cleaves from the peptic plasma kallikrein substrate the C-terminal aminomethylcoumarin (AMC), the fluorescence of which is measured. The determinations are carried out in microtitre plates.
In each case 1 μl of the diluted substance solutions is placed into the wells of white microtitre plates from Greiner (384 wells). 20 μl of assay buffer (50 mM Tris/HCl pH 7.4; 100 mM sodium chloride solution; 5 mM of calcium chloride solution; 0.1% of bovine serum albumin) and 20 μl of plasma kallikrein from Kordia (0.6 nM in assay buffer) are then added successively. After 15 min of incubation, the enzyme reaction is started by addition of 20 μl of the substrate H-Pro-Phe-Arg-AMC dissolved in assay buffer (10 μM in assay buffer) from Bachem, the mixture is incubated at room temperature (22° C.) for 30 min and fluorescence is then measured (excitation: 360 nm, emission: 460 nm). The measured emissions of the test batches with test substance are compared to those of control batches without test substance (only dimethyl sulphoxide instead of test substance in dimethyl sulphoxide), and IC50 values are calculated from the concentration/activity relationships.

Sequence of human plasma kallikrein (P03952 391-638): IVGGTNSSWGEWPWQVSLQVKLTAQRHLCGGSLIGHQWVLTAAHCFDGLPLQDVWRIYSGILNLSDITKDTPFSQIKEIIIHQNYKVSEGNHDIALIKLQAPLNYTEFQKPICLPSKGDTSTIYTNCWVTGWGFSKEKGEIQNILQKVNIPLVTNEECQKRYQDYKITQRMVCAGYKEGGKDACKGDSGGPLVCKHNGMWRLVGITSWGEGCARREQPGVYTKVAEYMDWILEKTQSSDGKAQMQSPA
Sequence of human plasma kallikrein (P03952 20-390 partner): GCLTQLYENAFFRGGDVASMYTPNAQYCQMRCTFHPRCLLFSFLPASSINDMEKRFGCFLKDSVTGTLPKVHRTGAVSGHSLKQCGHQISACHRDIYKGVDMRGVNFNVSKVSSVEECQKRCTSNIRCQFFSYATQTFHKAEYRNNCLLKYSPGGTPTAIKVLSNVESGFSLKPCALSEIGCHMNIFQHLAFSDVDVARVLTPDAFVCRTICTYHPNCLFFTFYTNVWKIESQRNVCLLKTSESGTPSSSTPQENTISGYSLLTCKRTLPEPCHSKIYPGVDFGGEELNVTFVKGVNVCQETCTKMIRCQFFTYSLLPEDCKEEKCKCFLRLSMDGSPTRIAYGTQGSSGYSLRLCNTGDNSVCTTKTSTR

Row | SMILES | IC50 [nM]
1 | CCC(C(=O)Nc1ccc2nccn2c1)n1cc(OC)c(-c2cc(Cl)ccc2C#N)cc1=O (racemic) [Example 4, 2-[4-(5-Chloro-2-cyanophenyl)-5-methoxy-2-oxopyridin-1(2H)-yl]-N-(imidazo[1,2-a]pyridin-6-yl)butanamide (racemate)] | 44
2 | COCCC(C(=O)Nc1ccc2nccn2c1)n1cc(Cl)c(-c2cc(Cl)ccc2C#N)cc1=O (racemic) [Example 14, 2-[5-Chloro-4-(5-chloro-2-cyanophenyl)-2-oxopyridin-1(2H)-yl]-N-(imidazo[1,2-a]pyridin-6-yl)-4-methoxybutanamide (racemate)] | 65
3 | COc1cn(C(CC2CCC2)C(=O)Nc2ccc3nccn3c2)c(=O)cc1-c1cc(Cl)ccc1C#N (racemic) [Example 15, 2-[4-(5-Chloro-2-cyanophenyl)-5-methoxy-2-oxopyridin-1(2H)-yl]-3-cyclobutyl-N-(imidazo[1,2-a]pyridin-6-yl)propanamide (racemate)] | 31
4 | CCC(C(=O)Nc1ccc2ncc(Cl)n2c1)n1cc(OC)c(-c2cc(Cl)ccc2C#N)cc1=O (racemic) [Example 17, 2-[4-(5-Chloro-2-cyanophenyl)-5-methoxy-2-oxopyridin-1(2H)-yl]-N-(3-chloroimidazo[1,2-a]pyridin-6-yl)butanamide (racemate)] | 24
5 | CCC(C(=O)Nc1ccc2nc(-c3ccc(F)cc3)cn2c1)n1cc(OC)c(-c2cc(Cl)ccc2C#N)cc1=O (racemic) [Example 18, 2-[4-(5-Chloro-2-cyanophenyl)-5-methoxy-2-oxopyridin-1(2H)-yl]-N-[2-(4-fluorophenyl)-imidazo[1,2-a]pyridin-6-yl]butanamide (racemate)] | 130
6 | COCCC(C(=O)Nc1ccc2nc(-c3ccc(F)cc3)cn2c1)n1cc(OC)c(-c2cc(Cl)ccc2C#N)cc1=O (racemic) [Example 19, 2-[4-(5-Chloro-2-cyanophenyl)-5-methoxy-2-oxopyridin-1(2H)-yl]-N-[2-(4-fluorophenyl)-imidazo[1,2-a]pyridin-6-yl]-4-methoxybutanamide (racemate)] | 25
7 | CCC(C(=O)Nc1ccc2nncn2c1)n1cc(OC)c(-c2cc(Cl)ccc2C#N)cc1=O (racemic) [Example 20, 2-[4-(5-Chloro-2-cyanophenyl)-5-methoxy-2-oxopyridin-1(2H)-yl]-N-([1,2,4]triazolo[4,3-a]pyridin-6-yl)butanamide (racemate)] | 23
8 | COCCC(C(=O)Nc1ccc2nnc(CN(C)C)n2c1)n1cc(OC)c(-c2cc(Cl)ccc2C#N)cc1=O (racemic) [Example 25, 2-[4-(5-Chloro-2-cyanophenyl)-5-methoxy-2-oxopyridin-1(2H)-yl]-N-{3-[(dimethylamino)-methyl][1,2,4]triazolo[4,3-a]pyridin-6-yl}-4-methoxybutanamide (racemate)] | 23
9 | COCCC(C(=O)Nc1ccc2cncn2c1)n1cc(Cl)c(-c2cc(Cl)ccc2C#N)cc1=O (racemic) [Example 27, 2-[5-Chloro-4-(5-chloro-2-cyanophenyl)-2-oxopyridin-1(2H)-yl]-N-(imidazo[1,5-a]pyridin-6-yl)-4-methoxybutanamide (racemate)] | 50
10 | CCC(C(=O)Nc1ccn2ncc(Cl)c2c1)n1cc(OC)c(-c2cc(Cl)ccc2C#N)cc1=O (racemic) [Example 40, 2-[4-(5-Chloro-2-cyanophenyl)-5-methoxy-2-oxopyridin-1(2H)-yl]-N-(3-chloropyrazolo[1,5-a]pyridin-5-yl)butanamide (racemate)] | 51

Stronger by IC50, values ahead:

Row | IC50 [nM] | SMILES
11 | 4.8 | COc1cn(C(C[C@@H]2CCCCO2)C(=O)Nc2ccc3nc(C(=O)O)cn3c2)c(=O)cc1-c1cc(Cl)ccc1C#N (mixture of isomers) [Example 9, 6-({2-[4-(5-Chloro-2-cyanophenyl)-5-methoxy-2-oxopyridin-1(2H)-yl]-3-[(2S)-tetrahydro-2H-pyran-2-yl]propanoyl}amino)imidazo[1,2-a]pyridine-2-carboxylic acid (mixture of enantiomerically pure diastereomers)]
12 | 16 | CCC(C(=O)Nc1ccc2nc(C(=O)O)cn2c1)n1cc(OC)c(-c2cc(Cl)ccc2C#N)cc1=O (racemic) [Example 2, 6-({2-[4-(5-Chloro-2-cyanophenyl)-5-methoxy-2-oxopyridin-1(2H)-yl]butanoyl}amino)imidazo[1,2-a]pyridine-2-carboxylic acid (racemate)]
13 | 13 | CCC(C(=O)Nc1ccn2cc(C(=O)O)nc2c1)n1cc(OC)c(-c2cc(Cl)ccc2C#N)cc1=O (racemic) [Example 3, 7-({2-[4-(5-Chloro-2-cyanophenyl)-5-methoxy-2-oxopyridin-1(2H)-yl]butanoyl}amino)imidazo[1,2-a]pyridine-2-carboxylic acid (racemate)]
14 | 7 | CCOC(=O)c1cnc2ccc(NC(=O)C(CCOC)n3cc(OC)c(-c4cc(Cl)ccc4C#N)cc3=O)cn12 (racemic) [Example 10, Ethyl 6-({2-[4-(5-chloro-2-cyanophenyl)-5-methoxy-2-oxopyridin-1(2H)-yl]-4-methoxybutanoyl}amino)imidazo[1,2-a]pyridine-3-carboxylate (racemate)]
15 | 5 | CCOC(=O)c1cn2ccc(NC(=O)C(CCOC)n3cc(OC)c(-c4cc(Cl)ccc4C#N)cc3=O)cc2n1 (racemic) [Example 11, Ethyl 7-({2-[4-(5-chloro-2-cyanophenyl)-5-methoxy-2-oxopyridin-1(2H)-yl]-4-methoxybutanoyl}amino)imidazo[1,2-a]pyridine-2-carboxylate (racemate)]
16 | 4.9 | COCCC(C(=O)Nc1ccn2cc(C(N)=O)nc2c1)n1cc(OC)c(-c2cc(Cl)ccc2C#N)cc1=O (racemic) [Example 12, 7-({2-[4-(5-Chloro-2-cyanophenyl)-5-methoxy-2-oxopyridin-1(2H)-yl]-4-methoxybutanoyl}amino)imidazo[1,2-a]pyridine-2-carboxamide (racemate)]
17 | 13 | COCCC(C(=O)Nc1ccc2nccn2c1)n1cc(OC)c(-c2cc(Cl)ccc2C#N)cc1=O (racemic) [Example 13, 2-[4-(5-Chloro-2-cyanophenyl)-5-methoxy-2-oxopyridin-1(2H)-yl]-N-(imidazo[1,2-a]pyridin-6-yl)-4-methoxybutanamide (racemate)]
18 | 8.3 | COCCC(C(=O)Nc1ccc2nnc(C)n2c1)n1cc(OC)c(-c2cc(Cl)ccc2C#N)cc1=O (racemic) [Example 22, 2-[4-(5-Chloro-2-cyanophenyl)-5-methoxy-2-oxopyridin-1(2H)-yl]-4-methoxy-N-(3-methyl[1,2,4]triazolo[4,3-a]pyridin-6-yl)butanamide (racemate)]
19 | 13 | CCc1nnc2ccc(NC(=O)C(CCOC)n3cc(OC)c(-c4cc(Cl)ccc4C#N)cc3=O)cn12 (racemic) [Example 23, 2-[4-(5-Chloro-2-cyanophenyl)-5-methoxy-2-oxopyridin-1(2H)-yl]-4-methoxy-N-(3-ethyl[1,2,4]triazolo[4,3-a]pyridin-6-yl)butanamide (racemate)]
20 | 16 | CCCCc1nnc2ccc(NC(=O)C(CCOC)n3cc(OC)c(-c4cc(Cl)ccc4C#N)cc3=O)cn12 (racemic) [Example 24, N-(3-Butyl[1,2,4]triazolo[4,3-a]pyridin-6-yl)-2-[4-(5-chloro-2-cyanophenyl)-5-methoxy-2-oxopyridin-1(2H)-yl]-4-methoxybutanamide (racemate)]
21 | 8.8 | COc1cn(C(Cc2ccccn2)C(=O)Nc2ccc3nccn3c2)c(=O)cc1-c1cc(Cl)ccc1C#N (racemic) [Example 28, 2-[4-(5-Chloro-2-cyanophenyl)-5-methoxy-2-oxopyridin-1(2H)-yl]-N-(imidazo[1,2-a]pyridin-6-yl)-3-(pyridin-2-yl)propanamide (racemate)]
22 | 11 | COc1cn(C(Cc2cnco2)C(=O)Nc2ccc3nccn3c2)c(=O)cc1-c1cc(Cl)ccc1C#N (racemic) [Example 29, 2-[4-(5-Chloro-2-cyanophenyl)-5-methoxy-2-oxopyridin-1(2H)-yl]-N-(imidazo[1,2-a]pyridin-6-yl)-3-(1,3-oxazol-5-yl)propanamide (racemate)]
23 | 17 | CCC(C(=O)Nc1ccn2nccc2c1)n1cc(OC)c(-c2cc(Cl)ccc2C#N)cc1=O (racemic) [Example 34, 2-[4-(5-Chloro-2-cyanophenyl)-5-methoxy-2-oxopyridin-1(2H)-yl]-N-(pyrazolo[1,5-a]pyridin-5-yl)butanamide (racemate)]
24 | 4.3 | COCCC(C(=O)Nc1ccn2nccc2c1)n1cc(OC)c(-c2cc(Cl)ccc2C#N)cc1=O (racemic) [Example 35, 2-[4-(5-Chloro-2-cyanophenyl)-5-methoxy-2-oxopyridin-1(2H)-yl]-4-methoxy-N-(pyrazolo[1,5-a]pyridin-5-yl)butanamide (racemate)]
25 | 11 | COCCC(C(=O)Nc1ccn2ncc(Cl)c2c1)n1cc(OC)c(-c2cc(Cl)ccc2C#N)cc1=O (racemic) [Example 41, 2-[4-(5-Chloro-2-cyanophenyl)-5-methoxy-2-oxopyridin-1(2H)-yl]-N-(3-chloropyrazolo[1,5-a]pyridin-5-yl)-4-methoxybutanamide (racemate)]
